The target of series [1] is T1, γ-secretase (Homo sapiens, UniProt P49768).
T1 construct: endogenous in cells; host or cells: SKNBE2 human neuroblastoma cells carrying hAPP 695 wild type
The experiment in a line: Screening for γ-secretase-modulating activity: Aβ42 in cell supernatant (Alphalisa sandwich immuno-assay). Format: cell-based. As to conditions: SKNBE2 human neuroblastoma cells carrying hAPP 695-wild type, overnight incubation. Here is the method: (§1) A) Screening of the Compounds of the Invention for γ-Secretase-Modulating Activity
(§2) Screening was carried out using SKNBE2 human neuroblastoma cells carrying the hAPP 695-wild type, grown in Dulbecco's Modified Eagle's Medium/Nutrient mixture F-12 (DMEM/NUT-mix F-12) (HAM) provided by Invitrogen (cat no. 10371-029) containing 5% Serum/Fe supplemented with 1% non-essential amino acids, 1-glutamine 2 mM, Hepes 15 mM, penicillin 50 U/ml (units/ml) and streptomycin 50 μg/ml. Cells were grown to near confluency.
(§3) The screening was performed using a modification of the assay as described in Citron et al (1997) Nature Medicine 3: 67. Briefly, cells were plated in a 384-well plate at 10^4 cells/well in Ultraculture (Lonza, BE12-725F) supplemented with 1% glutamine (Invitrogen, 25030-024), 1% non-essential amino acid (NEAA), penicillin 50 U/ml en streptomycin 50 μg/ml in the presence of test compound at different test concentrations. The cell/compound mixture was incubated overnight at 37° C., 5% CO2. The next day the media were assayed by two sandwich immuno-assays, for Aβ42 and Aβtotal.
(§4) Aβtotal and Aβ42 concentrations were quantified in the cell supernatant using the Aphalisa technology (Perkin Elmer). Alphalisa is a sandwich assay using biotinylated antibody attached to streptavidin coated donorbeads and antibody conjugated to acceptor beads. In the presence of antigen, the beads come into close proximity. The excitation of the donor beads provokes the release of singlet oxygen molecules that trigger a cascade of energy transfer in the acceptor beads, resulting in light emission. To quantify the amount of Aβ42 in the cell supernatant, monoclonal antibody specific to the C-terminus of Aβ42 (JRF/cAβ42/26) was coupled to the receptor beads and biotinylated antibody specific to the N-terminus of Aβ (JRF/AβN/25) was used to react with the donor beads. To quantify the amount of Aβtotal in the cell supernatant, monoclonal antibody specific to the N-terminus of Aβ (JRF/AβN/25) was coupled to the receptor beads and biotinylated antibody specific to the mid region of Aβ (biotinylated 4G8) was used to react with the donor beads.
To obtain the values reported in Table 3, the data are calculated as percentage of the maximum amount of amyloid Beta 42 measured in the absence of the test compound.
(§5) The sigmoidal dose response curves were analyzed using non-linear regression analysis with percentage of the control plotted against the log concentration of the compound. A 4-parameter equation was used to determine the IC50.

Series [2] addresses T1, γ-secretase. The experiment in a line: Screening for γ-secretase-modulating activity: Aβtotal in cell supernatant (Alphalisa sandwich immuno-assay). As to conditions: SKNBE2 human neuroblastoma cells carrying hAPP 695-wild type, overnight incubation. Format: cell-based. Here is the method:
as §1, §2, §3, §4, §5

Each structure is given as a SMILES string. pIC50: −log10 of the molar value. Where only a bound is given, the exact number is not on record here.

Consider `Cc1cn(-c2ccc3n(c2=O)C[C@@H]2CC[C@@H](Cc4cc(C(F)(F)F)cc(C(F)(F)F)c4)N2C3=O)cn1` (single isomer, unassigned) [Compound 2, 3-[[3,5-bis(trifluoromethyl)phenyl]methyl]-2,3,11,11a-tetrahydro-8-(4-methyl-1H-imidazol-1-yl)-1H-pyrido[1,2-a]pyrrolo[1,2-d]pyrazine-5,9-dione ((3R, 11aR) or (3S, 11aS))], for which the melting point amounted to 255.25 °C. Moreover, on γ-secretase [1], the pIC50 is below 5.00. This compound showed a pIC50 at γ-secretase [2] below 5.00.
With `Cc1cn(-c2ccc3n(c2=O)C[C@@H]2CC[C@H](Cc4cc(C(F)(F)F)cc(C(F)(F)F)c4)N2C3=O)cn1` (single isomer, unassigned) [Compound 3, 3-[[3,5-bis(trifluoromethyl)phenyl]methyl]-2,3,11,11a-tetrahydro-8-(4-methyl-1H-imidazol-1-yl)-1H-pyrido[1,2-a]pyrrolo[1,2-d]pyrazine-5,9-dione ((3S, 11aR) or (3R, 11aS))], the melting point is 241.17 °C. The compound further gave a pIC50 at γ-secretase [1] of 6.38. The compound further showed a pIC50 at γ-secretase [2] below 5.00.
The compound `Cc1cn(-c2ccc3n(c2=O)C[C@@H]2CC[C@H](Cc4cc(C(F)(F)F)cc(C(F)(F)F)c4)N2C3=O)cn1` (single isomer, unassigned) [Compound 5, 3-[[3,5-bis(trifluoromethyl)phenyl]methyl]-2,3,11,11a-tetrahydro-8-(4-methyl-1H-imidazol-1-yl)-1H-pyrido[1,2-a]pyrrolo[1,2-d]pyrazine-5,9-dione ((3R, 11aS) or (3S, 11aR))] gave a melting point of 238.34 °C. Also, the pIC50 against γ-secretase [1] is 6.01. Besides, the negative-log IC50 (pIC50) against γ-secretase [2] is below 5.00.
As for `Cc1cn(-c2ccc3n(c2=O)C[C@@H]2CCC[C@@H](Cc4cc(C(F)(F)F)cc(C(F)(F)F)c4)N2C3=O)cn1` (single isomer, unassigned) [Compound 7, 10-[[3,5-bis(trifluoromethyl)phenyl]methyl]-6,6a,7,8,9,10-hexahydro-3-(4-methyl-1H-imidazol-1-yl)-dipyrido[1,2-a:1′,2′-d]pyrazine-4,12-dione ((6aR, 10R) or (6aS, 10S))], the melting point was 231.07 °C. On γ-secretase [1], the pIC50 is 5.95. This compound gave a pIC50 against γ-secretase [2] below 5.00.
In the same order, the values of `Cc1cn(-c2ccc3n(c2=O)C[C@@H]2CCC[C@H](Cc4cc(C(F)(F)F)cc(C(F)(F)F)c4)N2C3=O)cn1` (single isomer, unassigned) [Compound 8, 10-[[3,5-bis(trifluoromethyl)phenyl]methyl]-6,6a,7,8,9,10-hexahydro-3-(4-methyl-1H-imidazol-1-yl)-dipyrido[1,2-a:1′,2-d]pyrazine-4,12-dione ((6aS, 10R) or (6aR, 10S))] are 247.06 °C, 6.96 and below 5.00.
In turn, `Cc1cn(-c2ccc3n(c2=O)C[C@@H]2CCC[C@H](Cc4cc(C(F)(F)F)cc(C(F)(F)F)c4)N2C3=O)cn1` (single isomer, unassigned) [Compound 9, 10-[[3,5-bis(trifluoromethyl)phenyl]methyl]-6,6a,7,8,9,10-hexahydro-3-(4-methyl-1H-imidazol-1-yl)-dipyrido[1,2-a:1′,2-d]pyrazine-4,12-dione ((6aR, 10S) or (6aS, 10R))] yielded a melting point of 246.53 °C. On γ-secretase [1], this compound had a negative logarithm of the IC50 (pIC50) of 6.54. In addition, the pIC50 at γ-secretase [2] is below 5.00.
For `Cc1cn(-c2ccc3n(c2=O)C[C@@H]2CCC[C@@H](Cc4cc(C(F)(F)F)cc(C(F)(F)F)c4)N2C3=O)cn1` (single isomer, unassigned) [Compound 10, 10-[[3,5-bis(trifluoromethyl)phenyl]methyl]-6,6a,7,8,9,10-hexahydro-3-(4-methyl-1H-imidazol-1-yl)-dipyrido[1,2-a:1′,2-d]pyrazine-4,12-dione ((6aS, 10S) or (6aR, 10R))] the same measures were 231.74 °C, 6.89 and 5.50.
Regarding `Cc1cn(-c2ccc3n(c2=O)C[C@@H]2CCC[C@H](c4cc(C(F)(F)F)cc(C(F)(F)F)c4)N2C3=O)cn1` (single isomer, unassigned) [Compound 12, 10-[3,5-bis(trifluoromethyl)phenyl]-6,6a,7,8,9,10-hexahydro-3-(4-methyl-1H-imidazol-1-yl)-dipyrido[1,2-a: 1′,2′-d]pyrazine-4,12-dione ((6aR, 10S) or (6aS, 10R))], the pIC50 against γ-secretase [1] was 6.62; against γ-secretase [2], below 5.00.
Regarding `Cc1cn(-c2ccc3n(c2=O)C[C@@H]2CCC[C@H](c4cc(C(F)(F)F)cc(C(F)(F)F)c4)N2C3=O)cn1` (single isomer, unassigned) [Compound 13, 10-[3,5-bis(trifluoromethyl)phenyl]-6,6a,7,8,9,10-hexahydro-3-(4-methyl-1H-imidazol-1-yl)-dipyrido[1,2-a: 1′,2′-d]pyrazine-4,12-dione ((6aS, 10R) or (6aR, 10S)], on γ-secretase [1], the pIC50 is below 5.00.
Consider `Cc1cn(-c2ccc3n(c2=O)CC2CCC(Cc4cc(C(F)(F)F)cc(C(F)(F)F)c4)N2C3=O)cn1` (stereo not drawn) [Compound 1, 3-[[3,5-bis(trifluoromethyl)phenyl]methyl]-2,3,11,11a-tetrahydro-8-(4-methyl-1H-imidazol-1-yl)-1H-pyrido[1,2-a]pyrrolo[1,2-d]pyrazine-5,9-dione], for which the melting point came to 234.89 °C. Besides, the pIC50 against γ-secretase [1] is 6.80. At γ-secretase [2], this compound had a pIC50 below 5.00.
As for `Cc1cn(-c2ccc3n(c2=O)C[C@H]2CC[C@H](c4cc(C(F)(F)F)cc(C(F)(F)F)c4)N2C3=O)cn1` [Compound 15, (3R,11aR)-3-[3,5-bis(trifluoromethyl)phenyl]-2,3,11,11a-tetrahydro-8-(4-methyl-1H-imidazol-1-yl)-1H-pyrido[1,2-a]pyrrolo[1,2-d]pyrazine-5,9-dione], the results for the negative-log IC50 (pIC50) against γ-secretase [1] and against γ-secretase [2] were 5.34 and below 5.00, respectively.
Regarding `Cc1cn(-c2ccc3n(c2=O)C[C@@H]2CC[C@@H](c4cc(C(F)(F)F)cc(C(F)(F)F)c4)N2C3=O)cn1` [Compound 16, (3S,11aS)-3-[3,5-bis(trifluoromethyl)phenyl]-2,3,11,11a-tetrahydro-8-(4-methyl-1H-imidazol-1-yl)-1H-pyrido[1,2-a]pyrrolo[1,2-d]pyrazine-5,9-dione], the pIC50 was 6.72 against γ-secretase [1] and below 5.00 against γ-secretase [2].
For `Cc1cn(-c2ccc3n(c2=O)C[C@@H]2CC[C@H](c4cc(C(F)(F)F)cc(C(F)(F)F)c4)N2C3=O)cn1` [Compound 18, (3R,11aS)-3-[3,5-bis(trifluoromethyl)phenyl]-2,3,11,11a-tetrahydro-8-(4-methyl-1H-imidazol-1-yl)-1H-pyrido[1,2-a]pyrrolo[1,2-d]pyrazine-5,9-dione] the same measures were below 5.00 and below 5.00.
On to `Cc1cn(-c2ccc3n(c2=O)C[C@H]2CC[C@@H](c4cc(C(F)(F)F)cc(C(F)(F)F)c4)N2C3=O)cn1` [Compound 19, (3S,11aR)-3-[3,5-bis(trifluoromethyl)phenyl]-2,3,11,11a-tetrahydro-8-(4-methyl-1H-imidazol-1-yl)-1H-pyrido[1,2-a]pyrrolo[1,2-d]pyrazine-5,9-dione], for which the results for the pIC50 on γ-secretase [1] and against γ-secretase [2] were 6.14 and below 5.00, respectively.
For the compound `Cc1cn(-c2ccc3n(c2=O)C[C@H]2CC[C@H](c4ccc(Cl)c(Cl)c4)N2C3=O)cn1` [Compound 20, (3R,11aR)-3-(3,4-dichlorophenyl)-2,3,11,11a-tetrahydro-8-(4-methyl-1H-imidazol-1-yl)-1H-pyrido[1,2-a]pyrrolo[1,2-d]pyrazine-5,9-dione], the negative logarithm of the IC50 (pIC50) on γ-secretase [1] is 5.35; on γ-secretase [2], 5.03.
With `Cc1cn(-c2ccc3n(c2=O)C[C@H]2CC[C@@H](c4ccc(Cl)c(Cl)c4)N2C3=O)cn1` [Compound 21, (3S,11aR)-3-(3,4-dichlorophenyl)-2,3,11,11a-tetrahydro-8-(4-methyl-1H-imidazol-1-yl)-1H-pyrido[1,2-a]pyrrolo[1,2-d]pyrazine-5,9-dione], the values for the pIC50 against γ-secretase [1] and against γ-secretase [2] were 5.88 and below 4.82, respectively.

The values are drawn from patent US10112943B2, “Substituted imidazoles as gamma secretase modulators” (Janssen Pharmaceutica NV, priority 2012, dated 2018).
